Drawing on PubChem BioAssay (NCI), this text covers GI50 and TGI for ten compounds.

Values joined by “and” are separate entries in the source; they are usually repeats but may differ in a detail not shown here. Equal entries are not always repeated.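 These data come from cells grown in 96-well plates and exposed to compound for 48 hours at five concentrations. Abbreviation: GI50, concentration required for 50% inhibition of growth. At the TGI there is no net growth.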 Bounds are passed on as bounds.

Holding throughout (experiment): growth of human tumour cells (NCI), 48 h
In assay [1] the test system is UACC-62 melanoma.
The test system of assay [2] is EKVX NSCLC.
Assay [3] relates to RXF 393 renal.
The test system of assay [4] is MDA-MB-435.
The subject of assay [5] is OVCAR-4 ovarian.
Assay [6] deals with SK-MEL-28 melanoma.
Assay [7] relates to MDA-MB-231 breast.
In assay [8] the test system is M14 melanoma.
Assay [9] relates to HT29 colon.
For assay [10], the system named is PC-3 prostate.

`CCCCCCCCCCCCCCCCCCOc1ccccc1CC(=O)OCC[N+]1(C)CCCC1`: the GI50 is 1.63 µM in assay [1]; 3.38 µM in assay [2]; 1.35 µM in assay [3]; 1.73 µM in [4]; 2.94 µM in [5]; 2.72 µM in [6]. The results for the GI50 in assay [7] and in assay [8] were 1.7 µM and 2.28 µM, respectively. The TGI came out at 3.33 µM in assay [1]; 16.4 µM in assay [2]; 2.76 µM in assay [3]; 3.31 µM in assay [4]; 12.1 µM in assay [5]; 7.86 µM in assay [6]. For the same compound, the TGI in assay [7] worked out at 3.55 µM; in [8], 5.46 µM.
With `CC(=O)N[C@H]1CSSC[C@@H](C(N)=O)NC(=O)[C@H](C(C)C)NC(=O)[C@H](C)NC(=O)[C@H](Cc2cnc[nH]2)NC1=O`, the GI50 in assay [1], in assay [2], in assay [3], in assay [4], in assay [5] and in assay [9] was greater than 100 µM throughout. Besides, the GI50 in assay [6], in [7], in assay [8] and in assay [10] was greater than 100 µM each time. The TGI in assay [1], in [2], in [3], in assay [4], in assay [5] and in assay [9] was greater than 100 µM in each case. Besides, the TGI in assay [6], in [7], in assay [8] and in [10] was greater than 100 µM in each case.
On to `Cn1c2ccccc2c(=O)c2ccc(Cl)cc21`, for which the TGI in assay [1], in [2], in [3], in [4], in assay [5] and in [9] was greater than 10 µM each time. In addition, the TGI in assay [6] and in [10] was greater than 10 µM in each case.
Turning to `O=C1NC(=O)C(CC2CCCCCCCCCCC2=O)C(=O)N1` (stereo not drawn), the TGI in [1], in assay [2], in assay [3], in assay [4], in assay [5] and in assay [9] was greater than 100 µM throughout. In addition, the TGI in [6], in [7], in assay [8] and in assay [10] was greater than 100 µM each time.
On to `O=C1CC2c3ccccc3CCC2c2ccccc21` (stereo not drawn), for which the TGI in assay [1] is 69.6 µM; in assay [2] it was 15.3 µM; in [4], 98.6 µM; in assay [9], 30.6 µM; in assay [6] it was greater than 100 µM; in [7], 80 µM. The values for the TGI in [8] and in assay [10] were 33.4 µM and 90.6 µM, respectively.
For the compound `O=c1cc(NC2CCN(CCCc3ccccc3)CC2)c2cc(Cl)ccc2o1`, the GI50 in assay [1] is 15.1 µM; in assay [3], 5.88 µM; in assay [4], 5.26 µM; in assay [5], 13.2 µM; in assay [9], 4.6 µM; in [6] it was 11.1 µM. Further, the figures for the GI50 in assay [7] and in [10] were 9.42 µM and 12.9 µM, respectively. Moreover, the TGI in assay [1] turned out to be 29.8 µM; in assay [3], 21.2 µM; in [4] it was 18.1 µM; in [5], 35.6 µM; in assay [9], 19.5 µM; in assay [6], 23.9 µM. The TGI in assay [7] came out at 22.9 µM; in assay [10], 26.9 µM.
`Nc1nc(F)nc2c1ncn2C1OC(CO)C(O)C1O` (stereo not drawn): the GI50 in assay [1] is 89.8 µM; in [3] it was 97.6 µM; in assay [4], 17.1 µM; in assay [6], greater than 100 µM; in assay [8] it was 6.39 µM; in [10], 41.6 µM. The TGI in assay [1], in assay [2], in assay [3], in [4], in [5] and in assay [9] was greater than 100 µM each time. The TGI is greater than 100 µM in [6]; greater than 100 µM in assay [7]; > 58.6 µM and 40.2 µM in [8]; greater than 100 µM in assay [10].
On to `CN(C)CCN1C(=O)c2ccc3c4c(ccc(c24)C1=O)C(=O)N(CCN=C=S)C3=O`, for which the GI50 in assay [1] is 0.071 µM; in [2], 0.396 µM; in assay [3], 0.0416 µM; in [4], 0.0585 µM; in assay [5], 0.13 µM; in [9], 0.0297 µM. Also, the GI50 is 0.0839 µM in assay [6], 0.0942 µM in assay [7], 0.0735 µM in assay [8] and 0.0513 µM in assay [10]. Further, the TGI came out at 0.211 µM in assay [1]; 1.5 µM in assay [2]; 0.177 µM in assay [3]; 0.249 µM in assay [4]; 0.365 µM in assay [5]; 0.115 µM in assay [9]. For the same compound, the TGI in [6] came to 0.209 µM; in assay [7], 0.352 µM; in [8] it was 0.216 µM; in assay [10], 0.667 µM.
For `C[C@H](O)C(=O)N1CCC(CCn2c(Sc3cc4c(cc3Br)OCO4)nc3c(N)ncnc32)CC1`, the GI50 in assay [1] was 0.862 µM; in assay [2] it was 4.11 µM; in assay [3], 2.57 µM; in assay [4], 0.577 µM; in assay [5] it was greater than 20.1 µM; in [9], 0.432 µM. Besides, the GI50 was 1.49 µM in assay [6], 1.46 µM in assay [7], 0.965 µM in [8] and 1.16 µM in assay [10]. Besides, the TGI in assay [2] was greater than 100 µM; in assay [3] it was greater than 31.6 µM; in assay [4] it was greater than 100 µM; in assay [5] it was greater than 100 µM; in assay [9] it was greater than 100 µM; in assay [6], greater than 100 µM. Besides, the TGI in assay [7] is 31.9 µM; in assay [8] it was greater than 100 µM; in assay [10] it was greater than 100 µM.
Regarding `ClCC[N+]12CC[N+](CCCl)(CC1)C2`, the TGI in assay [1], in assay [2], in assay [3], in [4], in assay [5] and in [9] was greater than 100 µM in each case. The TGI in [6], in assay [7], in assay [8] and in [10] was greater than 100 µM each time.
